Source: article PMC12000391, “Selective molecular inhibition of the HDAC6 ZnF-UBP binding domain impairs multiple myeloma cell function” (Cell Death Discovery, 2025)
Ends that are not written are not given here.

How the values were obtained:
[1] = molecular target: T1, HDAC6 ZnF-UBP binding domain (ZnF-UBP^WT peptide, HDAC6^1109-1215) (Homo sapiens, UniProt Q9UBN7); test: fluorescence polarization displacement of FITC-RLRGG
T1 construct: methods b47 print 1190-1215, apparently a misprint), expressed in E. coli BL21 Star (DE3), HisTrap purified
T1 sequence (Q9UBN7 1109-1215): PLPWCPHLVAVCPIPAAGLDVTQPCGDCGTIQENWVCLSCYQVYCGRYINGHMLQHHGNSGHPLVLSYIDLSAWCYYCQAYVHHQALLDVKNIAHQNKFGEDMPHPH
Source text: fluorescence polarization displacement of FITC-RLRGG on HDAC6 ZnF-UBP binding domain (ZnF-UBP^WT peptide, HDAC6^1109-1215)

[2] = molecular target: T2, ubiquitin C-terminal pentapeptide RLRGG (Homo sapiens, also: FITC label, site not given here); test: fluorescence polarization
T2 chain: RLRGG

Cn1c(CCC(=O)O)nc2cc([N+](=O)[O-])ccc2c1=O [1f, Quinazolinone 1 f]
IC50 [1]: 2.3 ± 0.2 µM

Cn1c(CCC(=O)O)nc2cc(Cl)ccc2c1=O [1e, Quinazolinone 1e]
IC50 [1]: 1.9 ± 0.1 µM

Cc1ccc2c(=O)n(C)c(CCC(=O)O)nc2c1 [1g, Quinazolinone 1 g]
IC50 [1]: 2.1 ± 0.1 µM

COc1ccc2nc(CCC(=O)O)n(C)c(=O)c2c1 [1c, Quinazolinone 1c]
IC50 [1]: 2.1 ± 0.5 µM

Cn1c(CCC(=O)O)nc2ccccc2c1=O [1a, quinazolinone 1a]
IC50 [1]: 2.7 ± 0.3 µM

Cc1ccc2nc(CCC(=O)O)n(C)c(=O)c2c1 [1d, Quinazolinone 1 d]
IC50 [1]: 13.6 ± 1 µM

Cn1c(CCC(=O)O)nc2ccc(Cl)cc2c1=O [1b, Quinazolinone 1b]
IC50 [1]: 1.9 ± 0.2 µM

B1: HDAC6 ZnF-UBP 1109-1215 (protein)
chain: T1 sequence (Q9UBN7 1109-1215)
Kd [2]: 680 nM
